This passage reports MIC results from US4370326A, “Cephem compounds and composition” (Fujisawa Pharmaceutical Co., Ltd., priority 1977, dated 1983).

Common to all, as to assay: In vitro antibacterial activity, two-fold agar-plate dilution method
Holding throughout (type): cell-based

For one experiment, the system named is Escherichia coli 324. The settings on record: heart infusion agar, 37° C., 20 hours, 10^8 viable cells per ml, read-out: minimal inhibitory concentration (MIC). Here is the method:
(§1) In vitro antibacterial activity was determined by the two-fold agar-plate dilution method as described below. One loopful of an overnight culture of each test strain in Trypticase-soy broth (10^8 viable cells per ml.) was streaked on heart infusion agar (HI-agar) containing graded concentrations of antibiotics, and the minimal inhibitory concentration (MIC) was expressed in terms of μg/ml. after incubation at 37° C. for 20 hours. [drawing 15]

A further experiment deals with Klebsiella aerogenes 417. The settings on record: heart infusion agar, 37° C., 20 hours, 10^8 viable cells per ml, read-out: minimal inhibitory concentration (MIC). Here is the method:
as §1

A further experiment deals with Salmonella enteritidis. As to conditions: Salmonella enterica, heart infusion agar, 37° C., 20 hours, 10^8 viable cells per ml, read-out: minimal inhibitory concentration (MIC). Here is the method: as §1
Another experiment has as its system Proteus vulgaris 616. The settings on record: heart infusion agar, 37° C., 20 hours, 10^8 viable cells per ml, read-out: minimal inhibitory concentration (MIC). As to the method: as §1
Another experiment has as its system Proteus mirabilis 520. As to conditions: heart infusion agar, 37° C., 20 hours, 10^8 viable cells per ml, read-out: minimal inhibitory concentration (MIC). As to the method:
as §1

In brackets after ≈: the same amount, converted by molar mass.

As for `Nc1nc(C(O)C(=O)NC2C(=O)N3C(C(=O)O)=CCSC23)cs1` (centres unmarked) [Compound 4], the MIC in the experiment on Escherichia coli 324 was 1.56 µg/mL (≈ 4.38 µM); with Klebsiella aerogenes 417 it was 0.78 µg/mL (≈ 2.19 µM); in the experiment on Salmonella enteritidis, 3.13 µg/mL (≈ 8.78 µM); in the experiment on Proteus vulgaris 616, 12.5 µg/mL (≈ 35.1 µM); in the experiment with Proteus mirabilis 520 it was 1.56 µg/mL (≈ 4.38 µM).

Consider `Nc1nc(C(=O)C(=O)NC2C(=O)N3C(C(=O)O)=CCSC23)cs1` (centres unmarked) [Compound 1], for which the MIC is 1.56 µg/mL (≈ 4.4 µM) with Escherichia coli 324; 0.1 µg/mL (≈ 0.282 µM) in the experiment on Klebsiella aerogenes 417; 1.56 µg/mL (≈ 4.4 µM) in the experiment with Salmonella enteritidis; 12.5 µg/mL (≈ 35.3 µM) in the experiment with Proteus vulgaris 616; 0.78 µg/mL (≈ 2.2 µM) in the experiment with Proteus mirabilis 520.

For `Nc1nc(C(N)C(=O)NC2C(=O)N3C(C(=O)O)=CCSC23)cs1` (centres unmarked) [Compound 3], the MIC in the experiment with Escherichia coli 324 was found to be 0.78 µg/mL (≈ 2.19 µM); in the experiment on Klebsiella aerogenes 417, 0.39 µg/mL (≈ 1.1 µM); in the experiment with Salmonella enteritidis, 3.13 µg/mL (≈ 8.81 µM); in the experiment on Proteus vulgaris 616, 1.56 µg/mL (≈ 4.39 µM); in the experiment with Proteus mirabilis 520, 0.78 µg/mL (≈ 2.19 µM).

As for `Nc1nc(CC(=O)NC2C(=O)N3C(C(=O)O)=CCSC23)cs1` (centres unmarked) [Compound 2], the MIC in the experiment on Escherichia coli 324 was 1.56 µg/mL (≈ 4.58 µM); with Klebsiella aerogenes 417, 0.2 µg/mL (≈ 0.588 µM); with Salmonella enteritidis, 1.56 µg/mL (≈ 4.58 µM); in the experiment with Proteus vulgaris 616 it was 6.25 µg/mL (≈ 18.4 µM); in the experiment with Proteus mirabilis 520 it was 0.39 µg/mL (≈ 1.15 µM).
